The values that follow come from patent US6716628B2, “Chondrogenesis promoters and indolin-2-one derivatives” (Chugai Seiyaku Kabushiki Kaisha, priority 1999, dated 2004).

The subject of assay [1] is common mouse chondrocyte and adipocyte precursor cell line (CL-1). Kind of assay: Uptake of 35S-labeled sulfuric acid into CL-1. In kind it is cell-based. The settings on record: 10 μmol/L (A and F also 1 or 5 μmol/L), 48 h culture, uptake in final 24 h. As to the method: The above-mentioned cell line CL-1 was cultured in a 96-well cell culturing plate (Wallac Corp.) for a liquid scintillation counter (Wallac Corp.) to a cell density of 1000 per well. The medium used was α-MEM (GIBCO Corp.) containing 100 U/mL of penicillin (Meiji Seika Co., Ltd.), 100 μg/mL of streptomycin (Banyu Pharmaceutical Corp.) and 10% fetal bovine serum (INTERGEN Corp.). When the CL-1 cells reached confluency, the medium was exchanged with one containing 10 μmol/L of compounds A, B, C, D, E, F and G, and after 24 hours, ^35S-labeled sulfuric acid was added at 0.5 μCi per well and culturing was continued. For compounds A and F, a medium was also prepared with a concentration of 1 or 5 μmol/L. After 24 hours, the medium was discarded and the cell layer was fixed for 2 hours at room temperature using 0.2 mL of 5% paraformaldehyde (0.1 mol/L phosphate buffer solution (pH 7.4, Wako Pure Chemical Industries) containing 0.4% cetylpyridinium chloride (Wako Pure Chemical Industries). After discarding the fixing solution, it was washed once with the same solution and the washed solution was discarded. After adding 0.1 mL of scintillator (Wallac Corp.) to the cell layer and stirring, the radioactivity was measured with a scintillation counter (Wallac Corp.).

The subject of assay [2] is rabbit osteoarthritis model. The experiment in a line: Pathology suppressing effect in a rabbit osteoarthritis model. In kind it is in vivo. Conditions: 3.0 mmol/L, vs solvent alone. As for the experimental part: Rabbit osteoarthritis model was prepared using 12-week-old male NZW rabbits (Kitayama Labes Co., Ltd.), and performing partial menisectomy in right knee, and excision of the lateral collateral ligament and sesamoid ligament, according to the method of Colombo et al. (Arthritis Rheum. 26(7):875-886, 1983). Beginning on the 7th day after the operation, 500 μL of a 50% dimethylsulfoxide (DMSO) physiological saline solution (DMSO: Junsei Chemical Corp., physiological saline: Otsuka Pharmaceutical Corp.) or 3.0 mmol/L of compound A solution was intraarticularly administered once a day into the right knee joint for a period of 3 weeks. The daily dosage of compound A was 816.8 μg.
On the day following the day of final administration, the right femoral distal and crural proximal sections were taken, and the femur was immersed overnight in 2% paraformaldehyde-2.5% glutaraldehyde fixing solution (both by Wako Pure Chemical Industries) for fixation, while the crus was immersed for one week in 20% neutral buffered formalin (Wako Pure Chemical Industries) for fixation.
After post-fixation of the femoral distal section with 1% osmium solution (Wako Pure Chemical Industries), it was dipped in an increasing ethanol series for dehydrogenation, and then substituted with isoamyl acetate and subsequently dried with a critical point drying apparatus (Hitachi Co., Ltd.). The dried tissue surface was coated with gold using an ion sputter coating apparatus (Eiko Corp.), and the femoral condyle cartilage surface was observed using a scanning electron microscope (Hitachi Co., Ltd.) (FIGS. 15A and 15B). The area of the damaged sections of the articular cartilage in the electron photomicrograph was measured using IPAP image analysis software (Sumika Technoservice Co., Ltd.), and judged on the scale shown in Table 11 below.
The proximal region of tibia was trimmed with a band saw (EXAKT Corp.) and then demineralized for 4 weeks with 20% EDTA-4Na solution (pH 7.4, Wako Pure Chemical Industries). […]

Assay [3] concerns healthy rats (auricula, trachea, sternum, femoral/crural knee joint, lumbar spine disk cartilage). Kind of assay: Chondrogenesis promoting effect with oral administration to healthy rats. The settings on record: oral 2 g/kg/day for 4 weeks, 6-week-old male SD rats, vs 3% gum Arabic vehicle; histology. In kind it is in vivo, rat. The text has this:
“Compound A” obtained in Synthesis Example 1 above was suspended in a 3% gum Arabic solution and orally administered to 6-week-old male SD rats (Nihon SLC Corp./Nihon Charles River Corp.) at a dosage of 2 g/kg/day for 4 weeks.
Each rat was then autopsied, the auricula, trachea, sternum, femoral/crural knee joint and lumbar spine (disk) were immersed for one week in 20% neutral buffer formalin (Wako Pure Chemical Industries, Co., Ltd.) and fixed, the sternum, femoral/crural knee joint and lumbar spine (disk) were then demineralized for 2 weeks with a 20% EDTA-4Na solution (pH 7.4, Wako Pure Chemical Industries), and observation sites were trimmed with a razor (Feather Co., Ltd.). Observation sites were trimmed from the auricula and trachea with a razor without demineralization.
Each of the trimmed tissue samples was prepared into a paraffin embedded block using an automatic embedding apparatus (Sakura Corp.) and paraffin (equivalent mixture of products by Kokusan Kagaku Corp. and Fisher Scientific Corp.). Here, a paraffin automatic dispensing embedding center (Miles Scientific Corp.) was used to fix each paraffin block in a tissue sample cassette (TISSUE-TEK Corp.)
The paraffin block was cut into 2 μm-thick sections using a microtome (Daiwa Optical Instruments Corp.) and microtome knife (Feather Co., Ltd.), and then attached onto slide glass (Matsunami Glass Corp.) and dried. […]

Setting [4] is: 500 μL intraarticular once a day for 3 weeks from day 7 after operation.

Take `CCOC(CN1C(=O)[C@](CC(=O)Nc2ccc(C)cc2)(NC(=O)Nc2ccc(C)cc2)c2ccccc21)OCC` [Compound A, (+)-1-(2,2-diethoxyethyl)-3-((4-methylphenyl)aminocarbonylmethyl)-3-(N′-(4-methylphenyl)ureido)indolin-2-one]: the “differentiation of CL-1 to chondrocytes (from 35S-labeled sulfuric acid uptake)” value in assay [1] is “clearly promote”. For the same molecule, in assay [2] (setting [4]), the “medium grade lesion area of articular cartilage (scanning electron microscope)” value is listed as “significantly smaller area of damage” and the “total lesion area of articular cartilage (scanning electron microscope)” value is on record as “significantly smaller area of damage”. For the same molecule, in assay [2] (500 μL intraarticular once a day for 3 weeks, Safranin O stained tibia sections), the “total histological scores, except for the loss of superficial layer” value is given as “significantly lower”. Moreover, in assay [3], the “hyaline cartilage formation (auricula, trachea, sternum, knee joint, lumbar spine disk)” value was “accelerated hyaline cartilage formation in all of the organs”.
